In patent US12616646B2, “Use of rochelle salt” (SKYLAB AG, priority 2021, dated 2026):

Key:
[1] = Antioxidant activity in relation to ascorbic acid by the ferricyanide spectrophotometric method; settings: 2% solution in distilled water
Source text: Materials and methods. The test item was 2% seignette salt solution in distilled water.

[2] = FtCl (Ft Cleaning) 300 cleaning and whitening ability test on Martindale tester, Example 1; settings: Δ by 4 cycles values
Experimental: To determine resistance of dental enamel to attrition on a Martindale tester (hereinafter—Tester) the sets were analyzed—samples of solutions of piezoelectric materials and tooth brushes based on the following indicator: • FtCl (Ft Cleaning) 300, characterizes the cleaning ability of a solution (paste) by making 300 cleaning movements (mah) in a suspension of piezoelectric materials. The indicator is used as an analog of PCR (Pellicle Cleaning Ration) and it enables quantitative assessment of the cleaning and whitening action of a solution (paste) in case of a single-time cleaning. […]
Determination of FtCl300 for a solution of piezoelectric materials: • path: ∞L=25 mm, • rate 150 mah/min, • impact—300 mah, • brush load 325 g, • minimum quantity of parallel determinations—one per each paste with a test brush, • a test tooth brush: tooth brush PROFESSIONAL COMPLETE of medium hardness, • use one brush head for not more than 3-4 cycles, i.e. for 900-1200 mah, owing to wear out of bristles; then replace the brush head with a new one. […]
FtCl300 values were calculated by the formula: FtCl300=100*(Lcl−Lcol)/(Lin−Lcol) Preparation of Solutions: • 1. […]
Test results. […] In this model any color is determined with lightness (L-Lightness) and two chromatic components: channel a—colors from dark green through gray to purple, channel b—colors from blue through gray to yellow. […]

[3] = concentration of 0.01%; vegetable oils subjected to heating; cited from earlier work

Row | SMILES | Antioxidant activity (AOA) [1] [mol-eq/l] | Antioxidant activity, AOA in relation to vitamin C (higher than vitamin C) [1] [%] | difference in FtCl300 to barium titanate [2] | antioxidant effect [3]
1 | O.O.O.O.O=C([O-])C(O)C(O)C(=O)[O-].[K+].[Na+] (stereo not shown) [seignette salt, potassium sodium tartrate KNaC4H4O6·4H2O] | 0.00013 | 13.7 | 0.19 | 
2 | O=C([O-])C(O)C(O)C(=O)[O-].[Na+].[Na+] (stereo not shown) [sodium tartrate] |  |  |  | marked antioxidant effect
